Measurements published in patent publication US20080275058A1, “N-Substituted-1H-Quinoline-2,4-Diones, Preparation Method Thereof, And Pharmaceutical Composition Containing The Same” (KOREA RESEARCH INSTITUTE OF CHEMICAL TECHNOLOGY, priority 2005, published 2008).
Read-outs that look alike come from different tables or passages of the source.

Assays:
[1] = biological target: T1, Human serotonin 5-HT6 receptor (Homo sapiens, UniProt P50406); test: [3H]LSD binding assay on cloned 5-HT6 receptor membranes
T1 construct: made in house; host or cells: insect Sf21 cells (baculovirus vector BacPAK8)

[2] = biological target: T2, 5-HT7 (Homo sapiens, UniProt P34969); test: Radioligand binding, 5-HT7 ([3H]LSD); conditions: Table 4; [3H]LSD 3 nM; read-out: Binding affinity, IC50 (nM) 5-HT7
T2 construct: purchased Euroscreen/BioSignal Packard Inc

[3] = biological target: T3, 5-HT1a (Homo sapiens, UniProt P08908); test: Radioligand binding, 5-HT1a ([3H]8-OH-DPAT); conditions: Table 4; [3H]8-OH-DPAT 0.5 nM; read-out: Binding affinity, IC50 (nM) 5-HT1a
T3 construct: purchased Euroscreen/BioSignal Packard Inc
T3 sequence (P08908 1-422): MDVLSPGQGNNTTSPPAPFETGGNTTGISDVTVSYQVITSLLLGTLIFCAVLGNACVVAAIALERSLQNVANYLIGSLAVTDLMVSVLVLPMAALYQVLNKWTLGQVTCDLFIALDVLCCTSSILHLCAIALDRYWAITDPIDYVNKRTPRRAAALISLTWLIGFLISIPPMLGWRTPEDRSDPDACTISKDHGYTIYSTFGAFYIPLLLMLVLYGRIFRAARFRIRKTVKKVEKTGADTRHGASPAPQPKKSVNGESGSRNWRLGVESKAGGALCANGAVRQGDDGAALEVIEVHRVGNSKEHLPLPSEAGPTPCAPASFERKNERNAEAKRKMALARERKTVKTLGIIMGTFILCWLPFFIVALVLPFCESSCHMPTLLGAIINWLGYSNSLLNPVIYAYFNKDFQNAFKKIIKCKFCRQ
Method: Radioligand bindings were performed according to the test method provided by the supplier of receptor membrane (Euroscreen/BioSignal Packard Inc.). The detailed assay conditions and the results were shown in the following Table 3 and Table 4, respectively.

[4] = biological target: T4, 5-HT2a (Homo sapiens, UniProt P28223); test: Radioligand binding, 5-HT2a ([3H]Ketanserin); conditions: Table 4; [3H]Ketanserin 1 nM; read-out: Binding affinity, IC50 (nM) 5-HT2a
T4 construct: purchased Euroscreen/BioSignal Packard Inc

[5] = biological target: T5, 5-HT2c (Homo sapiens, UniProt P28335); test: Radioligand binding, 5-HT2c ([3H]Mesulergine); conditions: Table 4; [3H]Mesulergine 1 nM; read-out: Binding affinity, IC50 (nM) 5-HT2c
T5 construct: purchased Euroscreen/BioSignal Packard Inc
T5 sequence (P28335 33-458): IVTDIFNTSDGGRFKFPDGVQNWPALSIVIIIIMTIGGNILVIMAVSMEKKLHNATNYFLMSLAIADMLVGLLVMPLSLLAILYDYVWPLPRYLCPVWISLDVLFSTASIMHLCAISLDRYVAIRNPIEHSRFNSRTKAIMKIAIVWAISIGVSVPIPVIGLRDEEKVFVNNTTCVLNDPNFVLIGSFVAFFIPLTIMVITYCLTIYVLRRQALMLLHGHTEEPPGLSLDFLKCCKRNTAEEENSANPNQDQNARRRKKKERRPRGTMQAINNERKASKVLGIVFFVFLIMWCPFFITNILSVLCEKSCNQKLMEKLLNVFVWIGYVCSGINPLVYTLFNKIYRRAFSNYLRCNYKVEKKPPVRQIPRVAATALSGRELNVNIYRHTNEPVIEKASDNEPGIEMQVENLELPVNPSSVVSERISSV

[6] = biological target: D1 (Homo sapiens, UniProt P21728); test: Radioligand binding, dopamine D1; conditions: Table 4; read-out: Binding affinity, IC50 (nM) D1
[7] = biological target: T6, hD2L (Homo sapiens, UniProt P14416); test: Radioligand binding, dopamine D2 ([3H]spiperone); conditions: Table 4; [3H]spiperone 1 nM; read-out: Binding affinity, IC50 (nM) D2
T6 construct: purchased BioSignal Packard Inc., Montreal, Canada
Method: (§1) 2-2: Binding assays of Dopamine Receptor Family
(§2) The radioligands used were [^3H] spiperone (for hD2L and hD3 receptors, 1 nM) and [^3H] YM-09151-2 (for hD4.2 receptor, 0.06 nM). Radioligand bindings were performed by the protocols provided by the supplier of receptor membranes (BioSignal Packard Inc., Montreal, Canada). Briefly, the buffer used in D2 or D3 receptor binding assay was 50 mM Tris-HCl (pH 7.4), 10 mM MgCl2, 1 mM EDTA, or 50 mM Tris-HCl (pH 7.4), 5 mM MgCl2, 5 mM EDTA, 5 mM KCl, 1.5 mM CaCl2, 120 mM NaCl, respectively. In [^3H] YM-09151-2 receptor binding assays, the buffer containing 50 mM Tris-HCl (pH 7.4), 5 mM MgCl2, 5 mM EDTA, 5 mM KCl and 1.5 mM CaCl2 was used. […] Competition binding studies were carried out with 7-8 concentrations of the test compound run in duplicate tubes, and isotherms from three assays were calculated by computerized nonlinear regression analysis (GraphPad Prism Program, San Diego, […]) to yield median inhibitory concentration (IC50) values.

[8] = biological target: T7, hD3 (Homo sapiens, UniProt P35462); test: Radioligand binding, dopamine D3 ([3H]spiperone); conditions: Table 4; [3H]spiperone 1 nM; read-out: Binding affinity, IC50 (nM) D3
T7 construct: purchased BioSignal Packard Inc., Montreal, Canada
Method: as §1, §2

[9] = biological target: T8, hD4.2 receptor (Homo sapiens, UniProt P21917, DEL265-296); test: Radioligand binding, dopamine D4 ([3H]YM-09151-2); conditions: Table 4; [3H]YM-09151-2 0.06 nM; read-out: Binding affinity, IC50 (nM) D4
T8 construct: purchased BioSignal Packard Inc., Montreal, Canada
T8 sequence (P21917 with tags, fused parts or gaps DEL265-296): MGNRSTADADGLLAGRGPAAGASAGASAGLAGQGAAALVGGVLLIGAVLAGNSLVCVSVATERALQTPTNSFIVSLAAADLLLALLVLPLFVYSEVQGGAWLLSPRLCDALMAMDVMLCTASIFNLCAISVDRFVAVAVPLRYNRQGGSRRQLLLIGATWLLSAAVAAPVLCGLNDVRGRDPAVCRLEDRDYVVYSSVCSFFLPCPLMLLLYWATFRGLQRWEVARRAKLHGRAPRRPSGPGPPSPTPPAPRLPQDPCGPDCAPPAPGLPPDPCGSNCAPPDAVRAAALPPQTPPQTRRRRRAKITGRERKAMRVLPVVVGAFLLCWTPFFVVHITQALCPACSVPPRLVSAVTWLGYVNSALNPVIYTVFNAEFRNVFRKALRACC
Method: as §1, §2

[10] = Table 2, 1.87 nM [3H]LSD, 37 C, 60 min, read-out: IC50 (nM), binding affinity to the 5-HT6 receptor
[11] = Table 4, read-out: Binding affinity, IC50 (nM) 5-HT6

T7 sequence (P35462 whole entry): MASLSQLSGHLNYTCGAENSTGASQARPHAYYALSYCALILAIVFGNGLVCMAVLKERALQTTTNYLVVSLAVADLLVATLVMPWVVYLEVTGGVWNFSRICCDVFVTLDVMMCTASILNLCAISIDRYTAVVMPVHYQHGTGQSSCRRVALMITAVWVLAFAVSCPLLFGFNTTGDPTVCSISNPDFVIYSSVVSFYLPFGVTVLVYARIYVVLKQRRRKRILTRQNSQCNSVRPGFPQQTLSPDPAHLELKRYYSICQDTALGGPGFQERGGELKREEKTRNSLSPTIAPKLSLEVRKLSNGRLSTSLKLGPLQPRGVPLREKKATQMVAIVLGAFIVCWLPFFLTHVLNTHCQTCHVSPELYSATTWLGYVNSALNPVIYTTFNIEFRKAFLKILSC
T2 sequence (P34969 whole entry): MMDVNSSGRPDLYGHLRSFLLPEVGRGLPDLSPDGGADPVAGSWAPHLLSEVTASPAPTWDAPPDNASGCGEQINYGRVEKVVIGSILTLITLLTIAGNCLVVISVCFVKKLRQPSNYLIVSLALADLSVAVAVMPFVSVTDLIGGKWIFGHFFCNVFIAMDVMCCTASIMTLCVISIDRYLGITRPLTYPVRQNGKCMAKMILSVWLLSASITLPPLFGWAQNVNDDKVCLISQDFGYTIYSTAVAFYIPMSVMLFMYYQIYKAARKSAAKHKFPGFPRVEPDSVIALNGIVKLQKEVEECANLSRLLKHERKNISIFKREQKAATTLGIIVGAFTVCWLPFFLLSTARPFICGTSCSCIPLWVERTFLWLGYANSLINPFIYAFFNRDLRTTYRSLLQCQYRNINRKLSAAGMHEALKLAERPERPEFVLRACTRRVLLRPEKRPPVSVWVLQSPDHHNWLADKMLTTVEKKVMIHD
Chain of D1 (P21728 whole entry): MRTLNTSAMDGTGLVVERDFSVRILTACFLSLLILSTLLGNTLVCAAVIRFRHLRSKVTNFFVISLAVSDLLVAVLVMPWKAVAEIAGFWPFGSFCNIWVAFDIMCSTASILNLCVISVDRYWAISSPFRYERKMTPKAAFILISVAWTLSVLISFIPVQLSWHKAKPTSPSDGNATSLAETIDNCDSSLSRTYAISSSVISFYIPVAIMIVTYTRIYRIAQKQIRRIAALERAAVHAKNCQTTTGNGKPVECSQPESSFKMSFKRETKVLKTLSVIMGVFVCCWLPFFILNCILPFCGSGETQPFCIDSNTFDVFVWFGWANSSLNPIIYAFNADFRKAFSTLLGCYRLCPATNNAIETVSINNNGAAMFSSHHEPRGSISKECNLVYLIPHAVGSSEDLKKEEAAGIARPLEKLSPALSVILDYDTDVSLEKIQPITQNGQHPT
T4 sequence (P28223 whole entry): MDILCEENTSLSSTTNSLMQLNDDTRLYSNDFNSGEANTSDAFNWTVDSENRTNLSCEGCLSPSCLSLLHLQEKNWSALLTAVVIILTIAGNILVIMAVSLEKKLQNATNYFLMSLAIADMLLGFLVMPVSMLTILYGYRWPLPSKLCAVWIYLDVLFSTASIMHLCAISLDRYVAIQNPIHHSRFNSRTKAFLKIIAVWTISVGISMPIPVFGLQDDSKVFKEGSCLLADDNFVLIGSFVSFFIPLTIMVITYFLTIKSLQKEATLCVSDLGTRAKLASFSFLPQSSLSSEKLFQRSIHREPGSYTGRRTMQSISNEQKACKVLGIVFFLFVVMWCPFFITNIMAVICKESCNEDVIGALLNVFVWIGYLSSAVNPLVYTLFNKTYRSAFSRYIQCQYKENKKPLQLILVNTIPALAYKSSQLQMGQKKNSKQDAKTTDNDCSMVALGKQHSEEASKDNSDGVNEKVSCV
T1 sequence (P50406 whole entry): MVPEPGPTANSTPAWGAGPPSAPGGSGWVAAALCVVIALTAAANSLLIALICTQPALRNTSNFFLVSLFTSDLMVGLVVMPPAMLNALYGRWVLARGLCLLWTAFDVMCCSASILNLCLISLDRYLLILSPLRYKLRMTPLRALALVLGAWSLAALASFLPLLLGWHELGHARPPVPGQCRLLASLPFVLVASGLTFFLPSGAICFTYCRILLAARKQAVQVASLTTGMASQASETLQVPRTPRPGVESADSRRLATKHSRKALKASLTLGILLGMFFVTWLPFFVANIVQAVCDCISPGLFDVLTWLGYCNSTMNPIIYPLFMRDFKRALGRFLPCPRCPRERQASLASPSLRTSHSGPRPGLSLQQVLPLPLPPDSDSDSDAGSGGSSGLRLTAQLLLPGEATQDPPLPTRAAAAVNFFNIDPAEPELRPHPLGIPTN
T6 sequence (P14416 whole entry): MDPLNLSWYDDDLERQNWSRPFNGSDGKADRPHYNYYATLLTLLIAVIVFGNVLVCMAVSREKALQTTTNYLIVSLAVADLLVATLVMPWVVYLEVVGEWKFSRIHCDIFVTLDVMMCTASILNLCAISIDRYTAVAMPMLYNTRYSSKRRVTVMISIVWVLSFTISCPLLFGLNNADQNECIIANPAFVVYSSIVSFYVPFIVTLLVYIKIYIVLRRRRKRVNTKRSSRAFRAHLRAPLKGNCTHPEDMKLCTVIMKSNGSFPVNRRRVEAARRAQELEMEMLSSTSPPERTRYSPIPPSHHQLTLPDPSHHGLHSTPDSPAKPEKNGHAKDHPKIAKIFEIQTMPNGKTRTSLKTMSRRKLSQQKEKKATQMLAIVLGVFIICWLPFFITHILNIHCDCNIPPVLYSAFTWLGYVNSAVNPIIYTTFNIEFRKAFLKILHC

COc1ccc(C2(C)C(=O)c3c(N4CCNCC4)cc(Cl)cc3N(Cc3ccc(-c4ccccc4)cc3)C2=O)cc1 (stereo not shown) [Example 41, 1-Biphenyl-4-ylmethyl-7-chloro-3-(4-methoxy-phenyl)-3-methyl-5-piperazin-1-yl-1H-quinoline-2,4-dione]
IC50 [1, 10]: 351 nM
IC50 [1, 11]: 15.5 nM
IC50 [2]: 7010 nM
IC50 [3]: 7810 nM
IC50 [4]: 8470 nM
IC50 [5]: 8090 nM
IC50 [6]: 6000 nM
IC50 [7]: 7680 nM
IC50 [8]: 9000 nM
IC50 [9]: 9110 nM
melting point: 142 to 144 °C

CC1(c2cccc(O)c2)C(=O)c2c(N3CCNCC3)cc(Cl)cc2N(Cc2ccccc2)C1=O (stereo not shown) [Example 51, 1-Benzyl-7-chloro-3-(3-hydroxy-phenyl)-3-methyl-5-piperazin-1-yl-1H-quinoline-2,4-dione]
IC50 [1, 10]: 6.2 nM
IC50 [1, 11]: 20.7 nM
IC50 [2]: 7580 nM
IC50 [3]: 8450 nM
IC50 [4]: 7550 nM
IC50 [5]: 8740 nM
IC50 [6]: 6390 nM
IC50 [7]: 8650 nM
IC50 [8]: 9880 nM
IC50 [9]: 9460 nM
melting point: 238 to 240 °C

CC1(c2ccc(O)cc2)C(=O)c2c(N3CCNCC3)cc(Cl)cc2N(Cc2cccc(Br)c2)C1=O (stereo not shown) [Example 34, 1-(3-Bromo-benzyl)-7-chloro-3-(4-hydroxy-phenyl)-3-methyl-5-piperazin-1-yl-1H-quinoline-2,4-dione]
IC50 [1, 10]: 3.6 nM
IC50 [1, 11]: 16.8 nM
IC50 [2]: 9070 nM
IC50 [3]: 7550 nM
IC50 [4]: 6960 nM
IC50 [5]: 7030 nM
IC50 [6]: 9160 nM
IC50 [7]: 8050 nM
IC50 [8]: 9000 nM
IC50 [9]: 9350 nM

CCN(CC)c1ccc(C2(C)C(=O)c3c(N4CCNCC4)cc(Cl)cc3N(Cc3ccccc3)C2=O)cc1 (stereo not shown) [Example 17, 1-Benzyl-7-chloro-3-(4-diethylamino-phenyl)-3-methyl-5-piperazin-1-yl-1H-quinoline-2,4-dione]
IC50 [1, 10]: 41.5 nM
IC50 [1, 11]: 21.5 nM
IC50 [2]: > 10000 nM
IC50 [3]: 8550 nM
IC50 [4]: 7550 nM
IC50 [5]: 9810 nM
IC50 [6]: 8410 nM
IC50 [7]: 9050 nM
IC50 [8]: 8200 nM
IC50 [9]: 9110 nM

CCNc1ccc(C2(C)C(=O)c3c(N4CCNCC4)cc(Cl)cc3N(Cc3ccccc3)C2=O)cc1 (stereo not shown) [Example 18, 1-Benzyl-7-chloro-3-(4-ethylamino-phenyl)-3-methyl-5-piperazin-1-yl-1H-quinoline-2,4-dione]
IC50 [1, 10]: 14.6 nM
IC50 [1, 11]: 15.5 nM
IC50 [2]: 6010 nM
IC50 [3]: 8050 nM
IC50 [4]: 7010 nM
IC50 [5]: 8450 nM
IC50 [6]: > 10000 nM
IC50 [7]: > 1000 nM
IC50 [8]: 8900 nM
IC50 [9]: 8990 nM

CC1(c2ccc(O)cc2)C(=O)c2c(N3CCNCC3)cc(Cl)cc2N(Cc2cccnc2)C1=O (stereo not shown) [Example 38, 7-Chloro-3-(4-hydroxy-phenyl)-3-methyl-5-piperazin-1-yl-1-pyridin-3-ylmethyl-1H-quinoline-2,4-dione]
IC50 [1, 10]: 30.6 nM
IC50 [1, 11]: 20.4 nM
IC50 [2]: 6410 nM
IC50 [3]: 8450 nM
IC50 [4]: 8400 nM
IC50 [5]: 9140 nM
IC50 [6]: 9410 nM
IC50 [7]: 7690 nM
IC50 [8]: 9310 nM
IC50 [9]: 9240 nM

CC1(c2ccc(O)cc2)C(=O)c2c(N3CCNCC3)cc(Cl)cc2N(Cc2ccc3ccccc3c2)C1=O (stereo not shown) [Example 40, 7-Chloro-3-(4-hydroxy-phenyl)-3-methyl-1-naphthalen-2-ylmethyl-5-piperazin-1-yl-1H-quinoline-2,4-dione]
IC50 [1, 10]: 55.7 nM
IC50 [1, 11]: 18.2 nM
IC50 [2]: 7810 nM
IC50 [3]: 7510 nM
IC50 [4]: 9480 nM
IC50 [5]: 8510 nM
IC50 [6]: 7510 nM
IC50 [7]: 8540 nM
IC50 [8]: 9310 nM
IC50 [9]: 8980 nM

CC1(c2ccc(O)cc2)C(=O)c2c(N3CCNCC3)cc(Cl)cc2N(Cc2ccccc2O)C1=O (stereo not shown) [Example 30, 7-Chloro-1-(2-hydroxy-benzyl)-3-(4-hydroxy-phenyl)-3-methyl-5-piperazin-1-yl-1H-quinoline-2,4-dione]
IC50 [1, 10]: 15.9 nM
IC50 [1, 11]: 18.1 nM
IC50 [2]: 7340 nM
IC50 [3]: 7240 nM
IC50 [4]: 8400 nM
IC50 [5]: 9450 nM
IC50 [6]: 8000 nM
IC50 [7]: 7650 nM
IC50 [8]: 9780 nM
IC50 [9]: 8760 nM

CC1(c2ccc(O)cc2)C(=O)c2c(N3CCNCC3)cc(Cl)cc2N(Cc2cccc(N)c2)C1=O (stereo not shown) [Example 26, 1-(3-Amino-benzyl)-7-chloro-3-(4-hydroxy-phenyl)-3-methyl-5-piperazin-1yl-1H-quinoline-2,4-dione]
IC50 [1, 10]: 8.7 nM
IC50 [1, 11]: 19 nM
IC50 [2]: 5630 nM
IC50 [3]: 5900 nM
IC50 [4]: 5750 nM
IC50 [5]: 7330 nM
IC50 [6]: 6950 nM
IC50 [7]: 8410 nM
IC50 [8]: 9120 nM
IC50 [9]: 9410 nM

CN1CCN(c2cc(Cl)cc3c2C(=O)[C@@](C)(c2ccc(N)cc2)C(=O)N3Cc2ccccc2)CC1 (stereo in doubt) [Example 4, 3-(4-Amino-phenyl)-1-benzyl-7-chloro-3-methyl-5-(4-methyl-piperazin-1-yl)-1H-quinoline-2,4-dione]
IC50 [1, 10]: 7.4 nM
IC50 [1, 11]: 15 nM
IC50 [2]: 5050 nM
IC50 [3]: 5800 nM
IC50 [4]: 7010 nM
IC50 [5]: 5780 nM
IC50 [6]: 7090 nM
IC50 [7]: 6550 nM
IC50 [8]: 8110 nM
IC50 [9]: 8190 nM

CC1(c2ccc(N)cc2)C(=O)c2c(N3CCNCC3)cc(Cl)cc2N(Cc2ccccc2)C1=O (stereo not shown) [Example 16, 3-(4-Amino-phenyl)-1-benzyl-7-chloro-3-methyl-5-piperazin-1-yl-1H-quinolin-2,4-dione]
IC50 [1, 10]: 3.2 nM
IC50 [1, 11]: 17.6 nM
IC50 [2]: 9350 nM
IC50 [3]: 6020 nM
IC50 [4]: 8080 nM
IC50 [5]: 9880 nM
IC50 [6]: 9010 nM
IC50 [7]: 6740 nM
IC50 [8]: 9070 nM
IC50 [9]: 8910 nM
